The compounds below were run on LMNA aberrant splicing (MutLMNA-luc cell line) (assay: Luciferase assay for repression of LMNA aberrant splicing in stable 293 MutLMNA-luc cell line (293FLP LMNA LUC cells #8)). Conditions: 48 hours, compared to control untreated MutLMNA-luc cell line, read-out: Increase of luciferase activity.
Format: cell-based
From the text: Advantage has been taken of the luciferase system. The luciferase assay is an extremely sensitive and rapid assay. Linear results are seen over at least eight orders of magnitude of enzyme concentration. Moreover, the luciferase assay is well suited for high-throughput applications. To conduct a Mid-throughput screening (MTS) for compounds repressing LMNA aberrant splicing, we have constructed a plasmid in which exon 11, intron 11 and part of exon 12 of LMNA gene were fused with luciferase cDNA (FIG. 2). Both wild type (WtLMNA-luc)(SEQ ID NO: 1) and mutant (MutLMNA-luc)(SEQ ID NO: 2) substrate harbouring exon 11 mutation have been constructed. In these constructs we have generated a single initiation codon in exon 11 such as correct splicing will lead to luciferase expression, while aberrant splicing will skip the initiation codon and thereby prevent luciferase expression. After transfection in HeLa cells, Luciferase assays (FIG. 2B) and RT-PCR (FIG. 2C) indicate that WtLMNA-luc produces predominantly wild type splicing and large amount of luciferase activity, whereas MutLMNA-luc recapitulate the aberrant splicing profile with reduced luciferase expression (FIGS. 2 B and C, compare Wt and Mut). In order to use this system in MTS, we have generated a stable 293 cell lines containing a single integrated copy of luciferase reporter containing LMNA mutation (MutLMNA-luc cell line) using the flp system from INVITROGEN. This system allows us to perform a MTS for compounds able to enhance luciferase activity.
LMNA sequences (1278 bp of exon 11, intron 11 and 46 bp of […]) were PCR-amplified from either control or patient's cells genomic DNA with specific primer PCR fragments were purified with Concert Rapid PCR purification system (Invitrogen) and subcloned at the BamHI and EcoRI restriction sites of the pSppβm3 S1 plasmid containing the βGlobin cassette (Labourier et al., 1999—Recognition of exonic splicing enhancer sequences by the Drosophila splicing repressor RSF1. Nucleic Acids Res. 27, 2377-2386) to give the βGlo3S1LMNAwt and βGlo3S1LMNAmut constructs. The chimeric (3Glo-LMNA sequences were then inserted into the pcDNA3.1D/V5-His-TOPO vector (Invitrogen) to be used in transfection and in vitro splicing experiments. A single initiation codon ATG was kept in exon 11 of LMNA and LMNA sequences described above were fused at their 3′ end to Fyrefly luciferase cDNA (LMNAlucWT) in order that removal of intron 11 generates a transcript that encode a fusion protein harbouring luciferase activity, whereas usage of the cryptic splice site of mutated exon 11 (LMNAlucMut) will remove the initiation codon preventing luciferase expression. Both sequences were cloned in pcDNA3 Flp-In vector (Invitrogen).
A stable 293 cell line containing a single copy of LMNAlucMut minigene was obtained using the Flp-In system from (Invitrogen) according to manufacture procedure. Several clones were obtained and only one clone was used to screen the whole chemical library (293FLP LMNA LUC cells #8).
In a 96 Well Plate sterile, V-shape one put […] of drug compounds at 50 mM and then add 49.5 μl of 10% DMSO.
One pipets […] of drug at 500 μM and adds 200 μL of DMEM+Hygromycin B. At this stage the concentration of drug compound is 10 μM. One shares out 100 μl in a 96 Well Microplate sterile, flat bottom (further called luciferase plate) and 50 μl in other one (further called toxicity plate).
One washes 293FLP LMNA LUC cells once with D-PBS then adds 1 ml trypsin EDTA. Incubation at 37° C. for 2-3 minutes is proceeded. Then one adds 9 ml DMEM (with 10% FCS, P/S).
Cell concentration is brought at 10^5 cells per ml with DMEM+Hygromycin B to have 10^4 cells per 100 μl.
100 μl of suspension cells is added (at 10^4 cells per 100 μl) so final concentration of compounds is […].
Medium of the wells is gently removed then washed once by adding slowly 150 μl of D-PBS 1×. D-PBS is removed. 40 μl of PLB 1× is added and incubated at RT for 30 minutes. […]
Work on c1ccc(Oc2ccc(Nc3ccc4ccccc4n3)cc2)cc1 [Compound 102, N-(4-phenoxyphenyl)quinolin-2-amine] yielded a fold induction at 5 µM of 2.06. FC(F)(F)Oc1cccc(Nc2ccc3ccccc3n2)c1 [Compound 83, N-[3-(trifluoromethoxy)phenyl]quinolin-2-amine] was tested, and the fold induction at 5 µM was 2.74. Cc1cccc(Nc2ccc3ccccc3n2)n1 [Compound 17, N-(6-methylpyridin-2-yl)quinolin-2-amine] showed a fold induction at 5 µM of 3.66. Work on c1cnc(Nc2cnc3ccccc3n2)nc1 [Compound 142, N-(pyrimidin-2-yl)quinoxalin-2-amine] yielded a fold induction at 5 µM of 4.47. Compound c1ccc2nc(Nc3cnccn3)ccc2c1 [Compound 113, N-(pyrazin-2-yl)quinolin-2-amine] has a fold induction at 5 µM of 2.28. For Cc1cccnc1Nc1ccc2ccccc2n1 [Compound 31, N-(3-methylpyridin-2-yl)quinolin-2-amine], the fold induction at 5 µM was 5.07. FC(F)(F)c1ccc(Nc2ccc3ncccc3c2)nc1 [Compound 15, Quinolin-6-yl-(5-trifluoromethyl-pyridin-2-yl)-amine] was tested, and the fold induction at 5 µM was 2.17. COc1cccnc1Nc1ccc2ncccc2c1 [Compound 108, N-(3-methoxypyridin-2-yl)quinolin-6-amine] showed a fold induction at 5 µM of 4.57. Work on c1ccc2nc(Nc3ccncc3)ccc2c1 [Compound 120, N-(pyridin-4-yl)quinolin-2-amine] yielded a fold induction at 5 µM of 2.38. Compound N#Cc1ccc(Nc2ccc3ccccc3n2)nc1 [Compound 7, 6-(Quinolin-2-ylamino)-nicotinonitrile] has a fold induction at 5 µM of 3.33. COC(=O)c1ccc(Nc2nc3ccccc3cc2C)nc1 [Compound 61, methyl 6-[(3-methylquinolin-2-yl)amino]pyridine-3-carboxylate] was tested, and the fold induction at 5 µM was 2.04. Compound Cc1cc(OC(F)(F)F)ccc1Nc1cnc2ccccc2n1 [Compound 125, N-[2-methyl-4-(trifluoromethoxy)phenyl]quinoxalin-2-amine] has a fold induction at 5 µM of 2.59. For c1ccc(Nc2cnc3ccccc3n2)nc1 [Compound 135, N-(pyridin-2-yl)quinoxalin-2-amine], the fold induction at 5 µM was 4.58. COc1ccc(Nc2cnc3ccccc3c2)cc1 [Compound 123, N-(4-methoxyphenyl)quinolin-3-amine] showed a fold induction at 5 µM of 2.94. Work on Cc1cccc(Nc2ccc3ncccc3c2)n1 [Compound 16, (6-Methyl-pyridin-2-yl)-quinolin-6-yl-amine] yielded a fold induction at 5 µM of 4.56. Work on FC(F)(F)Oc1ccc(Nc2ccc3ccccc3n2)cc1 [Compound 8, Quinolin-2-yl-(4-trifluoromethoxy-phenyl)-amine] yielded a fold induction at 5 µM of 3.35. In the case of COc1cccnc1Nc1cnc2ccccc2c1 [Compound 10, (3-Methoxy-pyridin-2-yl)-quinolin-3-yl-amine], the fold induction at 5 µM is reported as 2.01. With O=C(O)c1ccnc(Nc2ccc3ccccc3n2)c1 [Compound 2, 2-(Quinolin-2-ylamino)-isonicotinic acid] the fold induction at 5 µM was 3.77. COC(=O)c1ccc(Nc2ccc3ccccc3n2)nc1 [Compound 59, methyl 6-(quinolin-2-ylamino)nicotinate] was tested, and the fold induction at 5 µM was 2.49. For COc1cccnc1Nc1ccc2ccccc2n1 [Compound 38, N-(3-methoxypyridin-2-yl)quinolin-2-amine], the fold induction at 5 µM was 5.81. With Cc1cccc(Nc2cnc3ccccc3c2)n1 [Compound 105, N-(6-methylpyridin-2-yl)quinolin-3-amine] the fold induction at 5 µM was 3.25. With Cc1cccnc1Nc1ccc2cccc(Cl)c2n1 [Compound 35, 8-chloro-N-(3-methylpyridin-2-yl)quinolin-2-amine] the fold induction at 5 µM was 2.74. Compound c1ccc(Nc2cnc3ccccc3c2)nc1 [Compound 9, Pyridin-2-yl-quinolin-3-yl-amine] has a fold induction at 5 µM of 2.47. For COc1ccnc2cc(Nc3cc(C)ccn3)ccc12 [Compound 146, 4-methoxy-N-(4-methylpyridin-2-yl)quinolin-7-amine], the fold induction at 5 µM was 4.18. Cc1cccc(Nc2ccc3cccc(Cl)c3n2)n1 [Compound 18, 8-chloro-N-(6-methylpyridin-2-yl)quinolin-2-amine] showed a fold induction at 5 µM of 2.85. Work on Cc1ccc(Nc2ccc3ccccc3n2)nc1 [Compound 32, N-(5-methylpyridin-2-yl)quinolin-2-amine] yielded a fold induction at 5 µM of 2.96. Cc1cccc(Nc2ccc3cc(Cl)ccc3n2)n1 [Compound 26, 6-chloro-N-(6-methylpyridin-2-yl)quinolin-2-amine] showed a fold induction at 5 µM of 6.2. For Cc1ccnc(Nc2ccc3cc(Cl)ccc3n2)c1 [Compound 25, 6-chloro-N-(4-methylpyridin-2-yl)quinolin-2-amine], the fold induction at 5 µM was 3.49. FC(F)(F)c1ccc(Nc2ccc3ccccc3n2)nc1 [Compound 34, N-(5-(trifluoromethyl)pyridin-2-yl)quinolin-2-amine] was tested, and the fold induction at 5 µM was 4.18. COc1ccnc2cc(Nc3ccccn3)ccc12 [Compound 145, 4-methoxy-N-(pyridin-2-yl)quinolin-7-amine] showed a fold induction at 5 µM of 3.87. With c1ccc(Nc2ccc3ccccc3n2)nc1 [Compound 4, Pyridin-2-yl-quinolin-2-yl-amine] the fold induction at 5 µM was 4.43. For Cc1ccc(Nc2ccc3cccc(Cl)c3n2)nc1 [Compound 36, 8-chloro-N-(5-methylpyridin-2-yl)quinolin-2-amine], the fold induction at 5 µM was 3.06. For Cc1ccc(Nc2cnc3ccccc3c2)nc1 [Compound 13, (5-Methyl-pyridin-2-yl)-quinolin-3-yl-amine], the fold induction at 5 µM was 3.46. Cc1ccnc(Nc2ccc3c(N(C)C)ccnc3c2)c1 [Compound 147, 4-N,4-N-dimethyl-7-N-(4-methylpyridin-2-yl)quinoline-4,7-diamine] showed a fold induction at 5 µM of 2.94. N#Cc1ccc(Nc2cnc3ccccc3n2)nc1 [Compound 137, 6-(quinoxalin-2-ylamino)pyridine-3-carbonitrile] showed a fold induction at 5 µM of 4.64. With FC(F)(F)c1cccc(Nc2ccc3ccccc3n2)n1 [Compound 42, N-(6-(trifluoromethyl)pyridin-2-yl)quinolin-2-amine] the fold induction at 5 µM was 3.87. With Cc1ccnc(Nc2ccc3ccccc3n2)c1 [Compound 3, (4-Methyl-pyridin-2-yl)-quinolin-2-yl-amine] the fold induction at 5 µM was 4.54. Compound O=[N+]([O-])c1ccc(Nc2ccc3ccccc3n2)nc1 [Compound 39, N-(5-nitropyridin-2-yl)quinolin-2-amine] has a fold induction at 5 µM of 4.29. Fc1ccc(Nc2ccc3ccccc3n2)nc1 [Compound 41, N-(5-fluoropyridin-2-yl)quinolin-2-amine] gave a fold induction at 5 µM of 3.32. For Cc1ccc(Nc2ccc3ncccc3c2)nc1 [Compound 107, N-(5-methylpyridin-2-yl)quinolin-6-amine], the fold induction at 5 µM was 2.2. O=[N+]([O-])c1cccnc1Nc1ccc2ccccc2n1 [Compound 28, N-(3-nitropyridin-2-yl)quinolin-2-amine] showed a fold induction at 5 µM of 2.99. c1cnc(Nc2ccc3ccccc3n2)nc1 [Compound 128, N-(pyrimidin-2-yl)quinolin-2-amine] was tested, and the fold induction at 5 µM was 3.08. With O=C(O)c1ccnc(Nc2ccc3cccc(Cl)c3n2)c1 [Compound 5, 2-(8-Chloro-quinolin-2-ylamino)-isonicotinic acid] the fold induction at 5 µM was 2.02. In the case of Cc1cccc(Nc2cnc3ccccc3n2)n1 [Compound 138, N-(6-methylpyridin-2-yl)quinoxalin-2-amine], the fold induction at 5 µM is reported as 8.22. With N#Cc1ccnc(Nc2ccc3ccccc3n2)c1 [Compound 33, 2-(quinolin-2-ylamino)isonicotinonitrile] the fold induction at 5 µM was 2.14.
